Measured values reported in patent US20160169918A1, “Methods of Diagnosis and Treatment for Pulmonary Arterial Hypertension” (THE REGENTS OF THE UNIVERSITY OF CALIFORNIA, priority 2013, published 2016).

Assays:
[1] = tested on: Adult Sprague-Dawley rats; test: monocrotaline-treated rat model, right ventricular hypertrophy (Fulton Index); details: MCT 60 mg/kg once intraperitoneally, 2 weeks, control rats 0.20
Protocol: Adult Sprague-Dawley rats (250-300 g, male) were injected once intraperitoneally with MCT (60 mg/kg) and sacrificed 2 weeks later. Right ventricular hypertrophy was assessed to determine the development of PAH. It was evaluated as the ratio of the weight of the right ventricle to that of the left ventricle plus the septum (Fulton Index). […] This model is commonly used and approved as a valid model of PAH.^42,43 All animals were cared for in compliance with the guiding principles and approved by the UCSD Institutional Animal Care and Use Committee.

[2] = biological target: gastric inhibitory polypeptide receptor (human) (UniProt P48546); test: cell-based or functional assay
[3] = biological target: T1, oxytocin receptor (Homo sapiens, UniProt P30559); test: forskolin-stimulated cAMP levels in Ctrl-PASMCs with oxytocin; type: cell-based; details: 0.1 nM-10 μM, 10 min, FIG. 4D
T1 construct: the oxytocin receptor is expressed on the membrane of Ctrl-PASMCs; endogenous in cells; host or cells: Ctrl-PASMCs (primary human pulmonary artery smooth muscle cells)
T1 sequence (P30559 1-389): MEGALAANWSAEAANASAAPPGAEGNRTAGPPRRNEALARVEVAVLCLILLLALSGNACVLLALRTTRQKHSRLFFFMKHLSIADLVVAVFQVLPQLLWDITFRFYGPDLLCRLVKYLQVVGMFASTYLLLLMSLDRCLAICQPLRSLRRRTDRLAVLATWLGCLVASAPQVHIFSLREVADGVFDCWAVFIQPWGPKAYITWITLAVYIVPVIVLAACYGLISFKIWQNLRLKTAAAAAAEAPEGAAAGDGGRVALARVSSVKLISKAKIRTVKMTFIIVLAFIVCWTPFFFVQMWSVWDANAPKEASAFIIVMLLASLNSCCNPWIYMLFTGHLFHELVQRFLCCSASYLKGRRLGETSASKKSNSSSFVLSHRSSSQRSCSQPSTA
Protocol: (§1) Control-PASMCs, PAH-PASMCs or HEK 293 cells were seeded at 30,000 cells/well in a 24-well plate. […] 10 uM FSK (alone) was used as a positive control. After the incubations, the media was aspirated and 150 μL of 7.5% trichloroacetic acid (TCA) was added to each well.
(§2) Assay tubes were filled with 1 mL of 10 mM sodium acetate buffer (pH 4.75) and a standard curve was constructed by serial dilution of stock 5 μM cAMP (Millipore, Billerica, Mass.). An appropriate amount of sample was added to the assay tubes and the samples were acetylated by addition of 20 μL triethylamine (Sigma) and 10 μl acetic anhydride (Sigma). 100 μL of the sodium acetate buffer was added to each well of a 96-well filter plate to prepare the plate and then was removed by vacuum. 50 μL of diluted, acetylated sample was added to each well along with 25 μL diluted antibody [1:1000, 6 μL primary cAMP antibody (Millipore) in 6 mL γ-globulin buffer (100 mg human γ-globulin/100 mL 50 mM NaAc pH 4.75)] and 25 μL diluted ^125I radioactivity [16 acetylated adenosine 3′,5′-cyclic phosphoric acid, 2′-O-succinyl [^125I]-iodotyrosine methyl ester (PerkinElmer) in 3 mL γ-globulin buffer so that 0.001 mCi of ^125I could be added to each sample. The 96-well filter plate containing the sample was incubated overnight at 4° C. […]

[4] = tested on: Ctrl-PASMCs; test: [3H]thymidine incorporation (DNA synthesis, proliferation) of PASMCs with GPCR agonists; type: cell-based, human
Protocol: GPCR agonists/antagonists/GPR75 antibody in the absence or presence of 200 μM IBMX and [^3H] thymidine (1 μCi/ml) were added to the cells for 24-48 hr. Following incubation, cells were washed with a large volume of cold phosphate buffer saline (PBS) and then twice with a large volume of cold 7.5% TCA. The precipitated material was dissolved with 0.5 M NaOH and combined with 3 mL of scintillation fluid (Ecoscint O, National Diagnostics) and radioactivity was determined using a liquid scintillation counter (Beckman Coulter LS 1801).

[5] = oxytocin 0.2 units/kg; cited from earlier work
[6] = biological target: prostacyclin receptor (IPR) (Homo sapiens, UniProt P43119); test: cAMP accumulation in response to receptor agonist (cAMP radioimmunoassay) in Ctrl-PASMCs; type: cell-based; details: agonist 10 μM, 10 min treatment
Chain of prostacyclin receptor (IPR) (P43119 whole entry): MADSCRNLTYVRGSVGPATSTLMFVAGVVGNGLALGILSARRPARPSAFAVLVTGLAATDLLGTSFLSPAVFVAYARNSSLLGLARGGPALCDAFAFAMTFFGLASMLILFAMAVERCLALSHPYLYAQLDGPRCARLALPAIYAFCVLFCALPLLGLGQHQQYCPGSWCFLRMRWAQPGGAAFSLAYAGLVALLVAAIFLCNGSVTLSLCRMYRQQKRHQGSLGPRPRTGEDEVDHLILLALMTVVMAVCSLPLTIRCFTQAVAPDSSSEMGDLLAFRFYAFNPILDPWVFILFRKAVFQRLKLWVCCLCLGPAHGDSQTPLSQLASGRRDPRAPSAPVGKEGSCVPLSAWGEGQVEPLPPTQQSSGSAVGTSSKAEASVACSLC
Protocol: as §1, §2

[7] = biological target: vasoactive intestinal peptide receptor 1 (human) (UniProt P32241); test: cell-based or functional assay
Chain of vasoactive intestinal peptide receptor 1 (human) (P32241 31-457): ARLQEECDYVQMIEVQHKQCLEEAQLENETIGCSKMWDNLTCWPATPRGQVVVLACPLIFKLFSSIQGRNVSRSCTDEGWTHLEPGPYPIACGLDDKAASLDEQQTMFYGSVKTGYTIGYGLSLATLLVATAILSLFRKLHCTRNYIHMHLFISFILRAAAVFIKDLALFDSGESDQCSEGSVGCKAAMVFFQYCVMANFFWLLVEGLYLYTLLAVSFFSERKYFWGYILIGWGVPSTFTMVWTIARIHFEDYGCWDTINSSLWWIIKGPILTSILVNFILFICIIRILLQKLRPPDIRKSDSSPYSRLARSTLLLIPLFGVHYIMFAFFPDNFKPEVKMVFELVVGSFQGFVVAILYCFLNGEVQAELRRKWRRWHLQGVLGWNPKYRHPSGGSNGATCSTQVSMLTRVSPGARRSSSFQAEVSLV

[8] = biological target: prostaglandin E2 receptor (EP2R) (Homo sapiens, UniProt P43116); test: cAMP accumulation in response to receptor agonist (cAMP radioimmunoassay) in Ctrl-PASMCs; details: agonist 1 μM, 10 min treatment
Chain of prostaglandin E2 receptor (EP2R) (P43116 whole entry): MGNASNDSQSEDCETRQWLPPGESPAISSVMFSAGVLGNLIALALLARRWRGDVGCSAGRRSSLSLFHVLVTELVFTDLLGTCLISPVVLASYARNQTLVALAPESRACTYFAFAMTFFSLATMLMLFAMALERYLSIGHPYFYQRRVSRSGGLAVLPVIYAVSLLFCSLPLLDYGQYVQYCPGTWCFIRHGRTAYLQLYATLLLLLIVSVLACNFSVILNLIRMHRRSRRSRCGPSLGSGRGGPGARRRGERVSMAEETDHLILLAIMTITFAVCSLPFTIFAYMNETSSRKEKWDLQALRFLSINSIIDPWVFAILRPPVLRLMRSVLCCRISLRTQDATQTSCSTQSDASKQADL
Protocol: as §1, §2

[9] = tested on: GPR75; details: cited from earlier work
[10] = biological target: T2, adenosine 2B receptor (A2BR) (Homo sapiens, UniProt P29275); test: cAMP accumulation in response to receptor agonist (cAMP radioimmunoassay) in Ctrl-PASMCs; type: cell-based; details: agonist 1 μM, 10 min treatment
T2 sequence (P29275 1-332): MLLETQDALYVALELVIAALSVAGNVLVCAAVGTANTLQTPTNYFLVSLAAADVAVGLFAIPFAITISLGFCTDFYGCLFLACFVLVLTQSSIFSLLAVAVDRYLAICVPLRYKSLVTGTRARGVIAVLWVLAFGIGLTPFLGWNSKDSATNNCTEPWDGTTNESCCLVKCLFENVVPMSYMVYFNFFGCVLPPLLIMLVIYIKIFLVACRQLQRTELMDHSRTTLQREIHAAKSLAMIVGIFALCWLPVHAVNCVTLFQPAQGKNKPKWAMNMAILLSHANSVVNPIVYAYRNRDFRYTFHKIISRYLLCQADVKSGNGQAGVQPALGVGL
Protocol: as §1, §2

[11] = biological target: T3, gastric inhibitory polypeptide receptor (GIPR) (Homo sapiens, UniProt P48546); test: as above; details: agonist 1 μM, 10 min treatment
T3 sequence (P48546 22-466): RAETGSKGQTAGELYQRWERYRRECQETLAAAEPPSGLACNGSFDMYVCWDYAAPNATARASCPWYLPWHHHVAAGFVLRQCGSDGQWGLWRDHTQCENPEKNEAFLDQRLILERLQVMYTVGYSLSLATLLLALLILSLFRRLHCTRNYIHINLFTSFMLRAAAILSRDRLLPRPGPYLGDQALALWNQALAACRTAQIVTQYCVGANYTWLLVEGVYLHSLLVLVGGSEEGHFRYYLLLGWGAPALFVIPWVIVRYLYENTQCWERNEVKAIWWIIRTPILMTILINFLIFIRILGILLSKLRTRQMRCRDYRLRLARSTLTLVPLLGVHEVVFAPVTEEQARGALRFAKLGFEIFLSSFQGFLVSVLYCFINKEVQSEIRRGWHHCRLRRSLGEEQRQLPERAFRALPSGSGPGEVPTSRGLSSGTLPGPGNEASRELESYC
Protocol: as §1, §2

[12] = tested on: PAH-patients; details: chronic inhalation; n=8 PAH-patients; cited from earlier work
[13] = tested on: smooth muscle cell; details: after serum stimulation; cited from earlier work
[14] = tested on: human PASMCs; details: cited from earlier work
[15] = HEK293 cells overexpressing GPR75

C[C@H]1C(=O)O[C@@H]2CCN3CC=C(COC(=O)[C@](C)(O)[C@]1(C)O)[C@H]23 [MCT, Monocrotaline]
Fulton Index (weight of right ventricle / left ventricle plus septum) [1]: 0.34

GIP (from UniProt P09681 52-93) (peptide)
cAMP accumulation (fmol cAMP/cell/10 min treatment with agonist) in Ctrl-PASMCs at 1 µM GIP (fmol cAMP/cell/10 min) [2]: 0.2

CC[C@H](C)[C@@H]1NC(=O)[C@H](Cc2ccc(O)cc2)NC(=O)[C@@H](N)CSSC[C@@H](C(=O)N2CCC[C@H]2C(=O)N[C@@H](CC(C)C)C(=O)NCC(N)=O)NC(=O)[C@H](CC(N)=O)NC(=O)[C@H](CCC(N)=O)NC1=O [oxytocin]
cAMP accumulation (forskolin-stimulated) [3]: decreased cAMP accumulation
PASMC proliferation ([4]; 0.1 nM-10 μM, cells in serum free media over 24 hr, FIG. 4D): promoted PASMC proliferation
mean PAP [5]: increases
pulmonary vascular resistance (PVR) [5]: increases

CCCCC[C@H](O)/C=C/[C@@H]1[C@H]2C/C(=C/CCCC(=O)O)O[C@H]2C[C@H]1O [epoprostenol]
cAMP accumulation [6]: 0.4 fmol cAMP/cell/10 min

vasoactive intestinal peptide (from UniProt P01282 125-152)
cAMP accumulation (fmol cAMP/cell/10 min treatment with agonist) in Ctrl-PASMCs at 1 µM VIP (fmol cAMP/cell/10 min) [7]: 0.2
decrease in proliferation of PASMCs (0.1 nM-10 µM VIP) [7]: 50%

CCCC1([C@H](O)C/C=C/[C@H]2[C@H](O)CC(=O)[C@@H]2CCCCCCC(=O)OC)CCC1 [butaprost]
cAMP accumulation [8]: 0.4 fmol cAMP/cell/10 min

COc1ccc2c(c1)CC[C@@H]1[C@@H]2CC[C@]2(C)[C@@H](NCCCCCCN3C(=O)C=CC3=O)CC[C@@H]12 [U73122]
RANTES-mediated increase in Ca2+ mobilization ([9]; GPR75-HEK293 cells, PLC inhibitor): block

Nc1nc(Nc2ccccc2)nc2c1ncn2[C@@H]1O[C@H](CO)[C@@H](O)[C@H]1O [CV1808]
cAMP accumulation [10]: 0.6 fmol cAMP/cell/10 min

GIP: receptor agonist used for the gastric inhibitory polypeptide receptor (GIPR)
cAMP accumulation [11]: 0.2 fmol cAMP/cell/10 min

Vasoactive Intestinal Peptide [VIP]
decrease of PASMC proliferation ([4]; 0.1 nM-10 μM VIP, FIG. 4C): roughly 50%
exercise capacity [12]: improve
hemodynamics [12]: improve

Nc1ncnc2c1nc(Br)n2[C@@H]1O[C@@H]2COP(=O)(O)O[C@H]2[C@H]1O [8Br-cAMP]
percentage of cells in the S phase of the cell cycle [13]: reduced

Neuropeptide Y
proliferation of human PASMCs [14]: stimulates proliferation

B1: RANTES: Regulated upon Activation, Normal T-cell Expressed, and Secreted chemokine; proposed ligand for GPR75 (protein, UniProt P13501 24-91, looked up)
C-C motif chemokine 5: SPYSSDTTPCCFAYIARPLPRAHIKEYFYTSGKCSNPAVVFVTRKNRQVCANPEKKWVREYINSLEMS
Ca2+ mobilization [9, 15]: stimulation
inositol triphosphate (IP3) [9, 15]: increase
